The IC50 is the point on the concentration scale where inhibition reaches its midpoint.

The values below come from patent US8853258B2, “C-linked hydroxamic acid derivatives useful as antibacterial agents” (Pfizer Inc., priority 2009, dated 2014).

The target in series [1] is Pseudomonas aeruginosa LpxC enzyme (Pseudomonas aeruginosa (strain ATCC 15692 / DSM 22644 / CIP 104116 / JCM 14847 / LMG 12228 / 1C / PRS 101 / PAO1), UniProt P47205). Briefly: IC50 Assay, LpxC Enzyme from P. aeruginosa (PA LpxC Enzyme IC50). The class given is biochemical. The settings on record: P. aeruginosa LpxC enzyme; read-out: PA LpxC enzyeme IC50. In short, it runs like this:
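Reaction run 1 h then stopped with 1N HCl. Conversion measured by RapidFire high-throughput mass spectrometry. IC50 derived from percent conversion relative to a no-enzyme control.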

Series [2] relates to Acinetobacter baumanii/haemolyticus: Multidrug-resistant clinical isolate (AB-3167). Description: MIC determination (CLSI), AB-3167. Type of series: cell-based. The settings on record: Acinetobacter baumanii/haemolyticus AB-3167. The method, boiled down:
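Multidrug-resistant clinical isolate AB-3167 (A. baumannii/haemolyticus) tested for minimum inhibitory concentration following CLSI dilution susceptibility standards M7-A7 and M100-S18.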

In series [3] the test system is Escherichia coli EC-1: VOGEL, mouse virulent. Description: MIC determination (CLSI), EC-1. The class given is cell-based. The settings on record: Escherichia coli EC-1. The method, boiled down: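 E. coli Vogel, a mouse-virulent strain (EC-1), was tested. MICs were set by dilution susceptibility testing per CLSI standards M7-A7/M100-S18.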
For series [4], the system named is Klebsiella pneumoniae: Ciprofloxacin-resistant isolate, ESBL, clinical isolate (KP-3700). Briefly: MIC determination (CLSI), KP-3700. The class given is cell-based. In short, it runs like this:
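MIC measured by broth dilution according to CLSI M7-A7 and M100-S18 standards. Test organism was a ciprofloxacin-resistant, ESBL-expressing clinical isolate.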

Series [5] deals with Pseudomonas aeruginosa UI-18: Wild-type (PA-7). Briefly: MIC determination (CLSI), PA-7. The class given is cell-based. The settings on record: Pseudomonas aeruginosa UI-18 (PA-7). In short, it runs like this: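 MIC by dilution method per CLSI M7-A7 and M100-S18 guidelines. Strain: wild-type Pseudomonas aeruginosa UI-18.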

Turning to `CC(CCc1ccc(-c2ccc(NS(C)(=O)=O)cc2)c(F)c1)(C(=O)NO)S(C)(=O)=O` (stereo not drawn) [Example 209], in series [1], the IC50 stood at 2040 pM. Further, the “AB-3167 MIC” value in series [2] is “≧64 mg/L”. The “EC-1 MIC” value in series [3] came out at 8 µg/mL. The “KP-3700 MIC” value in series [4] is 32 µg/mL. Further, in series [5], the “PA-7 MIC” value is 8 µg/mL.
`C[C@@](CCc1ccc(-c2ccc(NS(C)(=O)=O)cc2)cc1)(C(=O)NO)S(C)(=O)=O` [Example 210]: the IC50 in series [1] came out at 706 pM. The “AB-3167 MIC” value in series [2] is given as “≧64 mg/L”. For the same molecule, the “EC-1 MIC” value in series [3] was found to be 4 µg/mL. Besides, the “KP-3700 MIC” value in series [4] turned out to be 16 µg/mL. The “PA-7 MIC” value in series [5] stood at 2 µg/mL.
On the same counts, the results for `C[C@@](CCc1ccc(-c2cnc3cc[nH]c3c2)cc1)(C(=O)NO)S(C)(=O)=O` [Example 211] are 11100 pM, “≧64 mg/L”, “≧64 mg/L”, “≧64 mg/L” and 32 µg/mL.
On to `COc1ccc(-c2ccc(CC[C@](C)(C(=O)NO)S(C)(=O)=O)cc2)cn1` [Example 212], for which the IC50 in series [1] was determined as 237 pM. In addition, the “AB-3167 MIC” value in series [2] is given as “≧64 mg/L”. For the same molecule, the “EC-1 MIC” value in series [3] was 4 µg/mL. Also, in series [4], the “KP-3700 MIC” value worked out at 16 µg/mL. Also, in series [5], the “PA-7 MIC” value was found to be 1 µg/mL.
Turning to `COc1ccc(-c2ccc(CCC(C)(C(=O)NO)S(C)(=O)=O)cc2F)cn1` (stereo not drawn) [Example 213], in series [1], the IC50 worked out at 518 pM. Further, the “AB-3167 MIC” value in series [2] was “≧64 mg/L”. The “EC-1 MIC” value in series [3] came to 2 µg/mL. Besides, the “KP-3700 MIC” value in series [4] turned out to be 8 µg/mL. Moreover, the “PA-7 MIC” value in series [5] is 2 µg/mL.
Consider `C[C@@](CCc1ccc(-c2ccc3c(c2)OCO3)cc1)(C(=O)NO)S(C)(=O)=O` [Example 215], for which, in series [1], the IC50 was 84.2 pM. Moreover, the “AB-3167 MIC” value in series [2] was 16 µg/mL. Besides, the “EC-1 MIC” value in series [3] was 0.5 µg/mL. Further, in series [4], the “KP-3700 MIC” value amounted to 2 µg/mL. Further, the “PA-7 MIC” value in series [5] is 0.5 µg/mL.
Take `C[C@@](CCc1ccc(-c2ccc(C(=O)N3CCC[C@@H]3CO)cc2)cc1)(C(=O)NO)S(C)(=O)=O` [Example 216]: the IC50 in series [1] turned out to be 4020 pM. Further, in series [2], the “AB-3167 MIC” value is given as “≧64 mg/L”. In addition, the “EC-1 MIC” value in series [3] stood at 32 µg/mL. Also, in series [4], the “KP-3700 MIC” value is reported as “≧64 mg/L”. In addition, the “PA-7 MIC” value in series [5] was found to be 32 µg/mL.
As to `CC(C)(O)C(=O)c1ccc(-c2ccc(CC[C@](C)(C(=O)NO)S(C)(=O)=O)cc2)cc1` [Example 217], the IC50 in series [1] came to 278 pM. Further, the “AB-3167 MIC” value in series [2] is recorded as “≧64 mg/L”. The “EC-1 MIC” value in series [3] came to 0.5 µg/mL. Also, the “KP-3700 MIC” value in series [4] worked out at 4 µg/mL. Besides, in series [5], the “PA-7 MIC” value came to 4 µg/mL.
Turning to `C[C@@](CCc1ccc(-c2cc3ccccc3[nH]2)cc1)(C(=O)NO)S(C)(=O)=O` [Example 218], the IC50 in series [1] came to 34 pM. Further, in series [2], the “AB-3167 MIC” value turned out to be 32 µg/mL. For the same molecule, the “EC-1 MIC” value in series [3] amounted to 0.5 µg/mL. The “KP-3700 MIC” value in series [4] was 2 µg/mL. In addition, the “PA-7 MIC” value in series [5] was found to be 0.5 µg/mL.
On to `COc1ccc(-c2ccc(CCC(C)(C(=O)NO)S(C)(=O)=O)cn2)c(F)c1` (stereo not drawn) [Example 219], for which the IC50 in series [1] is 1210 pM. In series [2], the “AB-3167 MIC” value is listed as “≧64 mg/L”. Also, the “EC-1 MIC” value in series [3] worked out at 4 µg/mL. Further, in series [4], the “KP-3700 MIC” value worked out at 16 µg/mL. The “PA-7 MIC” value in series [5] amounted to 8 µg/mL.
With `C[C@@](CCc1ccc(-c2ccc(OCCCN3CCCCC3)cc2)cc1)(C(=O)NO)S(C)(=O)=O` [Example 220], in series [1], the IC50 stood at 467 pM. The “AB-3167 MIC” value in series [2] is “≧64 mg/L”. Also, the “EC-1 MIC” value in series [3] is 8 µg/mL. Moreover, the “KP-3700 MIC” value in series [4] turned out to be 32 µg/mL. Further, the “PA-7 MIC” value in series [5] was determined as 16 µg/mL.
On the same counts, the results for `C[C@@](CCc1ccc(-c2ccc(OCC(=O)N3CCC(O)CC3)cc2)cc1)(C(=O)NO)S(C)(=O)=O` [Example 221] are 533 pM, “≧64 mg/L”, 16 µg/mL, “≧64 mg/L” and 16 µg/mL.
